In patent US20140073634A1 (Institute For Applied Cancer Science/The University of …, priority 2012, published 2014):

tested on: 293T-HRE-GFP-luc cells; experiment: Cell-based reporter assay for IC50 determinations (HRE-luciferase, hypoxia); settings: 6 h, 6 hrs hypoxia (1% O2), luminescence
How it was run: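 IC50s come from four-parameter logistic fits of luminescence. Compounds in 1:3 DMSO series were added to 293T-HRE-GFP-luc cells, 30 min normoxia preceding 6 hrs at 1% O2, 37° C; HRE-luciferase signal was then measured with Steadylite Plus reagent.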

How did the IC50 turn out when `COC(=O)c1cc(Cn2nc(-c3nc(-c4ccc(OC(F)(F)F)cc4)no3)ccc2=O)ccn1` [Example 117, methyl 4-((6-oxo-3-(3-(4-(trifluoromethoxy)phenyl)-1,2,4-oxadiazol-5-yl)pyridazin-1(6H)-yl)methyl)picolinate] was run?
Its IC50 is 1000 to 10000 nM.

With `CN1CCN(c2cc(Cn3cc(-c4cc(-c5ccc(OC(F)(F)F)cc5)on4)ccc3=O)ccn2)CC1` [Example 97a, 1-((2-(4-Methylpiperazin-1-yl)pyridin-4-yl)methyl)-5-(5-(4-(trifluoromethoxy)phenyl)isoxazol-3-yl)pyridin-2(1H)-one] as the compound, how does the IC50 read?
The IC50 was < 100 nM.

With `O=c1ccc(-c2nc(-c3ccc(OC(F)(F)F)cc3)no2)cn1Cc1cccc(CCO)c1` [Example 42, 1-{[3-(2-Hydroxyethyl)phenyl]methyl}-5-{3-[4-(trifluoromethoxy)phenyl]-1,2,4-oxadiazol-5-yl}-1,2-dihydropyridin-2-one] as the compound, how does the IC50 read?
Its IC50 is < 100 nM.

`COCCOc1cccc(Cn2cc(-c3noc(-c4cnc(C5CC5)nc4)n3)ccc2=O)c1` [Example 244, 5-[5-(2-cyclopropylpyrimidin-5-yl)-1,2,4-oxadiazol-3-yl]-1-{[3-(2-methoxyethoxy)phenyl]methyl} 1,2-dihydropyridin-2-one] was tested. Which IC50 did it give?
The IC50 was < 100 nM.

Which IC50 does the source give for `CCCNS(=O)(=O)c1ccc(-c2nc(-c3ccc(=O)n(Cc4cccc(OCCOC)c4)c3)no2)cc1` [Example 234, 4-[3-(1-{[3-(2-methoxyethoxy)phenyl]methyl}-6-oxo-1,6-dihydroylpyridin-3-yl)-1,2,4-oxadiazol-5-yl]-N-propylbenzene-1-sulfonamide] here?
The IC50 was 100 to 1000 nM.

How did the IC50 turn out when `CC(C)Oc1ccc(-c2nc(-c3ccc(=O)n(Cc4cccc(OCCCS(C)(=O)=O)c4)c3)no2)cc1` [Example 206, 1-{[3-(3-methanesulfonylpropoxy)phenyl]methyl}-5-{5-[4-(propan-2-yloxy)phenyl]-1,2,4-oxadiazol-3-yl}-1,2-dihydropyridin-2-one] was run?
The IC50 was < 100 nM.

For `CS(=O)(=O)C1CCN(c2cccc(Cn3cc(-c4nnc(-c5ccc(OC(F)F)cc5)o4)ccc3=O)c2)CC1` [Example 105, 5-(5-(4-(Difluoromethoxy)phenyl)-1,3,4-oxadiazol-2-yl)-1-(3-(4-(methylsulfonyl)piperidin-1-yl)benzyl)pyridin-2(1H)-one], which IC50 is on record?
Its IC50 is < 100 nM.

For `O=C(CO)N1CCN(c2cccc(Cn3cc(-c4nc(-c5ccc(OC(F)(F)F)cc5)no4)ccc3=O)c2)CC1` [Example 60], which IC50 is on record?
Its IC50 is < 100 nM.

How did the IC50 turn out when `COCCOc1cccc(Cn2cc(-c3noc(-c4ccc(S(=O)(=O)NC(C)C)cc4)n3)ccc2=O)c1` [Example 217, 4-[3-(1-{[3-(2-methoxyethoxy)phenyl]methyl}-6-oxo-1,6-dihydropyridin-3-yl)-1,2,4-oxadiazol-5-yl}-N-(propan-2-yl)benzene-1-sulfonamide] was run?
The IC50 was 100 to 1000 nM.

Which IC50 does the source give for `O=c1ccc(-c2nc(-c3ccc(OC(F)(F)F)cc3)no2)cn1Cc1cccc(N2CCOCC2)c1` [Example 144, 1-{[3-(morpholin-4-yl)phenyl]methyl}-5-{3-[4-(trifluoromethoxy)phenyl]-1,2,4-oxadiazol-5-yl}-1,2-dihydropyridin-2-one] here?
Its IC50 is < 100 nM.

For `O=c1ccc(-c2nc(-c3ccc(OC(F)(F)F)cc3)no2)cn1Cc1cccc(OCC(O)CO)c1` (stereo not shown) [Example 55, 1-(3-(2,3-Dihydroxypropoxy)benzyl)-5-(3-(4-(trifluoromethoxy)phenyl)-1,2,4-oxadiazol-5-yl)pyridin-2(1H)-one], which IC50 is on record?
Its IC50 is < 100 nM.

How did the IC50 turn out when `Cc1ccc(-c2nnc(-c3ccc(OC(F)(F)F)cc3)o2)c(=O)n1Cc1ccnc(N2CCOCC2)c1` [Example 27, 6-Methyl-1-((2-morpholinopyridin-4-yl)methyl)-3-(5-(4-(trifluoromethoxy)phenyl)-1,3,4-oxadiazol-2-yl)pyridin-2(1H)-one] was run?
The IC50 was 100 to 1000 nM.

With `CN1CCN(C(=O)c2cccc(Cn3cc(-c4nc(-c5ccc(OC(F)(F)F)cc5)no4)ccc3=O)c2)CC1` [Example 115, 1-(3-(4-methylpiperazine-1-carbonyl)benzyl)-5-(3-(4-(trifluoromethoxy)phenyl)-1,2,4-oxadiazol-5-yl)pyridin-2(1H)-one] as the compound, how does the IC50 read?
The IC50 was < 100 nM.
